Experiments:
[1] = target: Insulin-like growth factor 1 receptor (Homo sapiens, UniProt P08069); assay: Inhibition of recombinant human GST-tagged IGF1R expressed in baculovirus infected Sf9 insect cells using poly (Glu,Tyr) 4:1 as substrate after 60 mins in presence of [gamma33P]ATP by scintillation counting method
[2] = target: Epidermal growth factor receptor (Homo sapiens, UniProt P00533); assay: Inhibition of recombinant human GST-tagged wild-type EGFR expressed in baculovirus infected Sf9 insect cells using poly (Glu,Tyr) 4:1 as substrate after 60 mins in presence of [gamma33P]ATP by scintillation counting method
[3] = system: BT-549; assay: Growth inhibition of human BT549 cells at 10 uM after 48 hrs by sulforhodamine B assay relative to control; format: functional; conditions: BT-549, 48 h, read-out: GI
[4] = system: Hs-578T; assay: Growth inhibition of human Hs 578T cells at 10 uM after 48 hrs by sulforhodamine B assay relative to control; format: functional; conditions: read-out: GI
[5] = system: HOP-62; assay: Growth inhibition of human HOP62 cells at 10 uM after 48 hrs by sulforhodamine B assay relative to control; format: functional; conditions: HOP-62, 48 h, read-out: GI
[6] = system: NCI-H460; assay: Growth inhibition of human NCI-H460 cells at 10 uM after 48 hrs by sulforhodamine B assay relative to control; format: functional; conditions: NCI-H460, 48 h, read-out: GI

Insulin-like growth factor 1 receptor, sequence (P08069 31-736 limits assumed): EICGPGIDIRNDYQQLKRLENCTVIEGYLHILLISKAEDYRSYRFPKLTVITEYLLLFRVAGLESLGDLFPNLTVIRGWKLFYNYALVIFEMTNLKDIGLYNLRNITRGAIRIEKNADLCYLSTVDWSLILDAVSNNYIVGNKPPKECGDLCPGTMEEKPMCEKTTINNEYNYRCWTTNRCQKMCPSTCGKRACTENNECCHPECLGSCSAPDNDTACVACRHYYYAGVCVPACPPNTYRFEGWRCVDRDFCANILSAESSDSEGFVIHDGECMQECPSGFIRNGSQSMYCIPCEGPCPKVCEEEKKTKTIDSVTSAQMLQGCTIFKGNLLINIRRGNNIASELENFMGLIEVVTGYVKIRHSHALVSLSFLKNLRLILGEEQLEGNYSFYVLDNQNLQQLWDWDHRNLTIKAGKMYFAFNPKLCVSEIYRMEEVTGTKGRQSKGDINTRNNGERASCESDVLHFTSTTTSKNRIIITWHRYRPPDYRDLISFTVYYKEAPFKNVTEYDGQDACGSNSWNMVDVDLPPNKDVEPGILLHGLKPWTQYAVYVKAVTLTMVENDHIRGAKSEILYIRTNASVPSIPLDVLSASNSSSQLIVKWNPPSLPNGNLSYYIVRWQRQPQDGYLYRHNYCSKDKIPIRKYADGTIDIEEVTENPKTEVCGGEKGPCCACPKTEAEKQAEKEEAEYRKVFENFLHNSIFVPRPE
Insulin-like growth factor 1 receptor, sequence (P08069 741-1367 limits assumed): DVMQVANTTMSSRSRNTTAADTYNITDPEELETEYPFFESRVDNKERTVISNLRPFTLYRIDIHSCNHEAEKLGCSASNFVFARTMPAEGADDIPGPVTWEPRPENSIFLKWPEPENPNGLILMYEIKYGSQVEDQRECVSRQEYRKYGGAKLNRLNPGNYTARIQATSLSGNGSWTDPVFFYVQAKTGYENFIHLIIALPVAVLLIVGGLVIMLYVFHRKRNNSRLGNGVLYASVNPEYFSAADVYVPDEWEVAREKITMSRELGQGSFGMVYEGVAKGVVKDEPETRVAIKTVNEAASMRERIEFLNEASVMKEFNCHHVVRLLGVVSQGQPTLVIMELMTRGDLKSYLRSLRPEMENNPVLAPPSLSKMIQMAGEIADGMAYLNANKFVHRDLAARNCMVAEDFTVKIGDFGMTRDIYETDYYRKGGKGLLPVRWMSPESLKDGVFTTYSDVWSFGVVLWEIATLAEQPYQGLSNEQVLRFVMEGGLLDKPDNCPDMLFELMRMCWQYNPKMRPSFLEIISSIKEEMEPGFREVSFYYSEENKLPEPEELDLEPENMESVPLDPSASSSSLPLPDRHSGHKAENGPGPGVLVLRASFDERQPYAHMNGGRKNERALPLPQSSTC
Epidermal growth factor receptor, sequence (P00533 whole entry): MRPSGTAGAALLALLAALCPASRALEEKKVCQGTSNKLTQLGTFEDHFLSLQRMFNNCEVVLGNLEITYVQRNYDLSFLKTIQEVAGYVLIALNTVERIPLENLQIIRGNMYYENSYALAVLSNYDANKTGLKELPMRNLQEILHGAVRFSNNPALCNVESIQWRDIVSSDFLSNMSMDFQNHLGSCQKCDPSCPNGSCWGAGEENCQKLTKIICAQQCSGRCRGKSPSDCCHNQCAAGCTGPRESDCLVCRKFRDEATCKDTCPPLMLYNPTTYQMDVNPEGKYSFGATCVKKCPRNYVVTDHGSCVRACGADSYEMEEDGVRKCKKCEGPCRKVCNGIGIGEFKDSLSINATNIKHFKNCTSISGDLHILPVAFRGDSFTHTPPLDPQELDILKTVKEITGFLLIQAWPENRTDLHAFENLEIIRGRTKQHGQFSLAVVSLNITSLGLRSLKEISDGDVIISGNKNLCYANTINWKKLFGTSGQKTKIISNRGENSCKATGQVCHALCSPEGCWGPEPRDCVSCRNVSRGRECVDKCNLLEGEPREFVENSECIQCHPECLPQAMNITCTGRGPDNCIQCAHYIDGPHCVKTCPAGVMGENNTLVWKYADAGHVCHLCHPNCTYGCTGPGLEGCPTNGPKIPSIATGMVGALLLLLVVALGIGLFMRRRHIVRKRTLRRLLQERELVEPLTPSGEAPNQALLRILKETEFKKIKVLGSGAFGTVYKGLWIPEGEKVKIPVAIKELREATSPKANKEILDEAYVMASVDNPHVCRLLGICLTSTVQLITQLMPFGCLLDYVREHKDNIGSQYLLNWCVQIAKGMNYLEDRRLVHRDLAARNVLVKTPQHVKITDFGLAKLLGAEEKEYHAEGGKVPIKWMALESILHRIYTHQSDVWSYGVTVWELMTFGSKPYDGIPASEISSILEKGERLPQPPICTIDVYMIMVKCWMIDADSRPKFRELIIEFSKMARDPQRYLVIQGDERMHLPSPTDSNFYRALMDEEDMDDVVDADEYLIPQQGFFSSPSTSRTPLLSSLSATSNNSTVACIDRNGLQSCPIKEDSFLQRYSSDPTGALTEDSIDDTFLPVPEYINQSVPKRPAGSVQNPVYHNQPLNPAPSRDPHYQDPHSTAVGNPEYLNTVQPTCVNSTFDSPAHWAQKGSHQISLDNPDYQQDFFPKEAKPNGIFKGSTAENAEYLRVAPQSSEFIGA

Row | Ki [1] | Ki [2] | SMILES | further results
1 | 1.03 µM | – | COc1ccc(CNc2ccnc3oc4ccccc4c23)cc1 | –
2 | – | – | Nc1ccc2oc3nccc(NCc4ccc(Br)cc4)c3c2c1 | IC50 [2]: > 1000 µM; IC50 [1]: > 1000 µM
3 | 3.54 µM | 2.52 µM | O=[N+]([O-])c1ccc2oc3nccc(NCc4ccc(Cl)cc4)c3c2c1 | –
4 | 4.6 µM | 0.4 µM | Nc1ccc2oc3nccc(NCc4cccc(Cl)c4)c3c2c1 | –
5 | 6.18 µM | 3.59 µM | Nc1cccc(CNc2ccnc3oc4ccc([N+](=O)[O-])cc4c23)c1 | –
6 | 8.93 µM | 0.94 µM | Nc1cccc(CNc2ccnc3oc4ccc(N)cc4c23)c1 | –
7 | 0.28 µM | 0.08 µM | O=[N+]([O-])c1ccc2[nH]c3nccc(NCc4cccc(Cl)c4)c3c2c1 | inhibition of growth at 10 µM [3]: 30%; inhibition of growth at 10 µM [4]: 82%; inhibition of growth at 10 µM [5]: 89%; inhibition of growth at 10 µM [6]: 73%
8 | 2.61 µM | 0.68 µM | O=[N+]([O-])c1ccc2oc3nccc(NCc4cccc(Br)c4)c3c2c1 | –
9 | 2.87 µM | 0.81 µM | O=[N+]([O-])c1ccc2oc3nccc(NCc4ccc(Br)cc4)c3c2c1 | –
10 | – | – | Nc1ccc2oc3nccc(NCc4ccc(Cl)cc4)c3c2c1 | IC50 [2]: > 1000 µM; IC50 [1]: > 1000 µM
11 | 1.92 µM | 0.14 µM | Nc1ccc2[nH]c3nccc(NCc4cccc(Cl)c4)c3c2c1 | –
12 | 0.54 µM | 0.17 µM | COc1cccc(CNc2ccnc3oc4ccc(N)cc4c23)c1 | inhibition of growth at 10 µM [3]: 43%; inhibition of growth at 10 µM [4]: 16%; inhibition of growth at 10 µM [5]: 28%; inhibition of growth at 10 µM [6]: 29%
13 | 2.39 µM | 0.93 µM | O=[N+]([O-])c1cccc(CNc2ccnc3oc4ccc([N+](=O)[O-])cc4c23)c1 | –
14 | – | 0.23 µM | Nc1ccc2oc3nccc(NCc4cccc(Br)c4)c3c2c1 | IC50 [1]: > 1000 µM; inhibition of growth at 10 µM [3]: 29%; inhibition of growth at 10 µM [4]: 16%; inhibition of growth at 10 µM [5]: 18%; inhibition of growth at 10 µM [6]: 23%
15 | 2.85 µM | 1.36 µM | O=[N+]([O-])c1ccc2oc3nccc(NCc4cccc(Cl)c4)c3c2c1 | –
16 | 0.32 µM | 0.11 µM | O=[N+]([O-])c1ccc2[nH]c3nccc(NCc4cccc(Br)c4)c3c2c1 | –
17 | 2.1 µM | 0.11 µM | Nc1ccc2[nH]c3nccc(NCc4cccc(Br)c4)c3c2c1 | –
18 | – | – | COc1ccc(CNc2ccnc3oc4ccc(N)cc4c23)cc1 | IC50 [2]: > 1000 µM; IC50 [1]: > 1000 µM
19 | 0.89 µM | 0.33 µM | COc1cccc(CNc2ccnc3[nH]c4ccc([N+](=O)[O-])cc4c23)c1 | –
20 | 4.56 µM | 2.74 µM | COc1cccc(CNc2ccnc3oc4ccc([N+](=O)[O-])cc4c23)c1 | –
21 | 3.56 µM | 0.32 µM | COc1cccc(CNc2ccnc3[nH]c4ccc(N)cc4c23)c1 | –
22 | 3.4 µM | 2.05 µM | COc1ccc(CNc2ccnc3oc4ccc([N+](=O)[O-])cc4c23)cc1 | –
